Patent US9388199B2, “Pyrrolidine derivatives and their use as complement pathway modulators” (priority 2012, dated 2016)
Counter-ions that a name gives are not always drawn.

Target: Recombinant human factor D (Homo sapiens (Human), UniProt P00746)
Assay: Human Complement Factor D Assay: Method 1
Type: biochemical
Details: 10 nM factor D, substrate Z-Lys-thiobenzyl, fluorescence readout, read-out: IC50 (μM), Factor D inhibition
Procedure: Human Complement Factor D Assay: Method 1
Recombinant human factor D (expressed in E. coli and purified using standard methods) at 10 nM concentration is incubated with test compound at various concentrations for 1 hour at room temperature in 0.1 M Hepes buffer, pH 7.5, containing 1 mM MgCl2, 1 M NaCl and 0.05% CHAPS. A synthetic substrate Z-Lys-thiobenzyl and 2,4-dinitrobenzenesulfonyl-fluoresceine are added to final concentrations of 200 μM and 25 μM, respectively. The increase in fluorescence is recorded at excitation of 485 nm and emission at 535 nm in a microplate spectrofluorimeter. IC50 values are calculated from percentage of inhibition of complement factor D-activity as a function of test compound concentration.

Chain of Recombinant human factor D (P00746 26-253): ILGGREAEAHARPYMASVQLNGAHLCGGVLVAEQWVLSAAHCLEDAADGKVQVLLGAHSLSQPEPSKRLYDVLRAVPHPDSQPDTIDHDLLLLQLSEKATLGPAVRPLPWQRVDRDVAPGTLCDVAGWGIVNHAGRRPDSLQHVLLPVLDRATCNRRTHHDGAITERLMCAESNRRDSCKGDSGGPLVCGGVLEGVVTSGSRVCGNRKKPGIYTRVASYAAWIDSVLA

SMILES	IC50
CC(=O)c1nn(CC(=O)N2[C@@H]3C[C@@H]3C[C@H]2C(=O)NCCCOC(F)(F)F)c2ccccc12 [Example 2, (1R,3S,5R)-2-[2-(3-Acetyl-indazol-1-yl)-acetyl]-2-aza-bicyclo[3.1.0]hexane-3-carboxylic acid (3-trifluoromethoxy-propyl)-amide]	0.605 µM
CC(=O)c1nn(CC(=O)N2[C@@H]3C[C@@H]3C[C@H]2C(=O)NCCC(C)(C)C)c2ccc(OCc3ncccn3)cc12 [Example 8, (1R,3S,5R)-2-{2-[3-Acetyl-5-(pyrimidin-2-ylmethoxy)-indazol-1-yl]-acetyl}-2-aza-bicyclo[3.1.0]hexane-3-carboxylic acid (3,3-dimethyl-butyl)-amide]	0.009 µM
CC(C)(C)CCNC(=O)[C@@H]1C[C@H]2C[C@H]2N1C(=O)Cn1nc(C(N)=O)c2ccccc21 [Example 1, 1-{2-[(1R,3S,5R)-3-(3,3-Dimethyl-butylcarbamoyl)-2-aza-bicyclo[3.1.0]hex-2-yl]-2-oxo-ethyl}-1H-indazole-3-carboxylic acid amide]	0.061 µM
CC(=O)c1nn(CC(=O)N2[C@@H]3C[C@@H]3C[C@H]2C(=O)NCC[Si](C)(C)C)c2cnccc12 [Example 43, (1R,3S,5R)-2-[2-(3-Acetyl-pyrazolo[3,4-c]pyridin-1-yl)-acetyl]-2-aza-bicyclo[3.1.0]hexane-3-carboxylic acid (2-trimethylsilanyl-ethyl)-amide]	0.323 µM
CC[C@@H](C)NC(=O)[C@@H]1C[C@H]2C[C@H]2N1C(=O)Cn1nc(C(C)=O)c2cc(OCc3ncccn3)ccc21 [Example 17, (1R,3S,5R)-2-{2-[3-Acetyl-5-(pyrimidin-2-ylmethoxy)-indazol-1-yl]-acetyl}-2-aza-bicyclo[3.1.0]hexane-3-carboxylic acid ((R)-sec-butyl)-amide]	0.333 µM
CC(C)(C)C[C@@H](CO)NC(=O)[C@@H]1C[C@H]2C[C@H]2N1C(=O)Cn1nc(C(N)=O)c2ccccc21 [Example 35, 1-{2-[(1R,3S,5R)-3-((S)-1-Hydroxymethyl-3,3-dimethyl-butylcarbamoyl)-2-aza-bicyclo[3.1.0]hex-2-yl]-2-oxo-ethyl}-1H-indazole-3-carboxylic acid amide]	0.593 µM
CC(=O)c1nn(CC(=O)N2[C@@H]3C[C@@H]3C[C@H]2C(=O)NCCC(F)(F)F)c2cnccc12 [Example 39, (1R,3S,5R)-2-[2-(3-Acetyl-pyrazolo[3,4-c]pyridin-1-yl)-acetyl]-2-aza-bicyclo [3.1.0]hexane-3-carboxylic acid (3,3,3-trifluoro-propyl)-amide]	5.32 µM
CC(=O)c1nn(CC(=O)N2[C@@H]3C[C@@H]3C[C@H]2C(=O)NCCC(C)C)c2ncccc12 [Example 30, (1R,3S,5R)-2-[2-(3-Acetyl-pyrazolo[3,4-b]pyridin-1-yl)-acetyl]-2-aza-bicyclo[3.1.0] hexane-3-carboxylic acid (3-methyl-butyl)-amide]	0.324 µM
CC[C@H](C)NC(=O)[C@@H]1C[C@H]2C[C@H]2N1C(=O)Cn1nc(C(C)=O)c2cc(OCc3ncccn3)ccc21 [Example 19, (1R,3S,5R)-2-{2-[3-Acetyl-5-(pyrimidin-2-ylmethoxy)-indazol-1-yl]-acetyl}-2-aza-bicyclo[3.1.0]hexane-3-carboxylic acid ((S)-sec-butyl)-amide]	0.929 µM
CCNC(=O)[C@@H]1C[C@H]2C[C@H]2N1C(=O)Cn1nc(C(C)=O)c2cc(OCc3ncccn3)ccc21 [Example 13, (1R,3S,5R)-2-{2-[3-Acetyl-5-(pyrimidin-2-ylmethoxy)-indazol-1-yl]-acetyl}-2-aza-bicyclo[3.1.0]hexane-3-carboxylic acid ethylamide]	0.504 µM
CC(=O)c1nn(CC(=O)N2[C@@H]3C[C@@H]3C[C@H]2C(=O)NCCC(C)(C)C)c2cnccc12 [Example 7, (1R,3S,5R)-2-[2-(3-Acetyl-pyrazolo[3,4-c]pyridin-1-yl)-acetyl]-2-aza-bicyclo[3.1.0] hexane-3-carboxylic acid (3,3-dimethyl-butyl)-amide]	0.068 µM
CC(C)(C)C(=O)CNC(=O)[C@@H]1C[C@H]2C[C@H]2N1C(=O)Cn1nc(C(N)=O)c2ccccc21 [Example 34, 1-{2-[(1R,3S,5R)-3-(3,3-Dimethyl-2-oxo-butylcarbamoyl)-2-aza-bicyclo[3.1.0]hex-2-yl]-2-oxo-ethyl}-1H-indazole-3-carboxylic acid amide]	0.192 µM
NC(=O)n1cc(NC(=O)N2[C@@H]3C[C@@H]3C[C@H]2C(=O)NCCCOC(F)(F)F)c2ccccc21 [Example 25, (1R,3S,5R)-2-Aza-bicyclo [3.1.0]hexane-2,3-dicarboxylic acid 2-[(1-carbamoyl-1H-indol-3-yl)-amide] 3-[(3-trifluoromethoxy-propyl)-amide]]	0.912 µM
C[Si](C)(C)CCNC(=O)[C@@H]1C[C@H]2C[C@H]2N1C(=O)Nc1cn(C(N)=O)c2ccccc12 [Example 22, (1R,3S,5R)-2-Aza-bicyclo [3.1.0]hexane-2,3-dicarboxylic acid 2-[(1-carbamoyl-1H-indol-3-yl)-amide] 3-[(2-trimethylsilanyl-ethyl)-amide]]	0.057 µM
CC(C)(C)CCNC(=O)[C@@H]1C[C@H]2C[C@H]2N1C(=O)Nc1cn(C(N)=O)c2ccccc12 [Example 21, (1R,3S,5R)-2-Aza-bicyclo[3.1.0]hexane-2,3-dicarboxylic acid 2-[(1-carbamoyl-1H-indol-3-yl)-amide]3-[(3,3-dimethyl-butyl)-amide]]	0.058 µM
CCNC(=O)[C@@H]1C[C@H]2C[C@H]2N1C(=O)Cn1nc(C(N)=O)c2ccncc21 [Example 12, 1-[2-((1R,3S,5R)-3-Ethylcarbamoyl-2-aza-bicyclo [3.1.0]hex-2-yl)-2-oxo-ethyl]-1H-pyrazolo[3,4-c]pyridine-3-carboxylic acid amide]	7.22 µM
CCNC(=O)[C@@H]1C[C@H]2C[C@H]2N1C(=O)Nc1cn(C(N)=O)c2ccccc12 [Example 24, (1R,3S,5R)-2-Aza-bicyclo [3.1.0]hexane-2,3-dicarboxylic acid 2-[(1-carbamoyl-1H-indol-3-yl)-amide] 3-ethylamide]	1.75 µM
NC(=O)c1nn(CC(=O)N2[C@@H]3C[C@@H]3C[C@H]2C(=O)NCCF)c2ccccc12 [Example 41, 1-{2-[(1R,3S,5R)-3-(2-Fluoro-ethylcarbamoyl)-2-aza-bicyclo[3.1.0]hex-2-yl]-2-oxo-ethyl}-1H-indazole-3-carboxylic acid amide]	1.35 µM
CC(C)(C)C(F)CNC(=O)[C@@H]1C[C@H]2C[C@H]2N1C(=O)Cn1nc(C(N)=O)c2ccccc21 (stereo partly drawn) [Example 44, 1-{2-[(1R,3S,5R)-3-(2-Fluoro-3,3-dimethyl-butylcarbamoyl)-2-aza-bicyclo[3.1.0]hex-2-yl]-2-oxo-ethyl}-1H-indazole-3-carboxylic acid amide]	0.384 µM
C[Si](C)(C)CCNC(=O)[C@@H]1C[C@H]2C[C@H]2N1C(=O)Cn1nc(C(N)=O)c2ccccc21 [Example 28, 1-{2-oxo-2-[(1R,3S,5R)-3-(2-trimethylsilanyl-ethylcarbamoyl)-2-aza-bicyclo[3.1.0]hex-2-yl]-ethyl}-1H-indazole-3-carboxylic acid amide]	0.065 µM
NC(=O)n1cc(NC(=O)N2[C@@H]3C[C@@H]3C[C@H]2C(=O)NCCOC(F)(F)F)c2ccccc21 [Example 23, (1R,3S,5R)-2-Aza-bicyclo [3.1.0]hexane-2,3-dicarboxylic acid 2-[(1-carbamoyl-1H-indol-3-yl)-amide] 3-[(2-trifluoromethoxy-ethyl)-amide]]	0.427 µM
C[C@H](CC(C)(C)C)NC(=O)[C@@H]1C[C@H]2C[C@H]2N1C(=O)Cn1nc(C(N)=O)c2ccccc21 [Example 36, 1-{2-Oxo-2-[(1R,3S,5R)-3-((R)-1,3,3-trimethyl-butylcarbamoyl)-2-aza-bicyclo[3.1.0]hex-2-yl]-ethyl}-1H-indazole-3-carboxylic acid amide]	0.113 µM
CC(C)(C)C[C@H](CO)NC(=O)[C@@H]1C[C@H]2C[C@H]2N1C(=O)Cn1nc(C(N)=O)c2ccccc21 [Example 42, 1-{2-[(1R,3S,5R)-3-((R)-1-Hydroxymethyl-3,3-dimethyl-butylcarbamoyl)-2-aza-bicyclo[3.1.0]hex-2-yl]-2-oxo-ethyl}-1H-indazole-3-carboxylic acid amide]	5.36 µM
CC(C)(O)CCNC(=O)[C@@H]1C[C@H]2C[C@H]2N1C(=O)Cn1nc(C(N)=O)c2ccncc21 [Example 10, 1-{2-[(1R,3S,5R)-3-(3-Hydroxy-3-methyl-butylcarbamoyl)-2-aza-bicyclo[3.1.0]hex-2-yl]-2-oxo-ethyl}-1H-pyrazolo[3,4-c] pyridine-3-carboxylic acid amide trifluoroacetate]	5.67 µM
CC(C)(C)C(O)CNC(=O)[C@@H]1C[C@H]2C[C@H]2N1C(=O)Cn1nc(C(N)=O)c2ccccc21 (stereo partly drawn) [Example 33, 1-{2-[(1R,3S,5R)-3-(2-Hydroxy-3,3-dimethyl-butylcarbamoyl)-2-aza-bicyclo [3.1.0]hex-2-yl]-2-oxo-ethyl}-1H-indazole-3-carboxylic acid amide]	0.271 µM
CC(=O)c1nn(CC(=O)N2[C@@H]3C[C@@H]3C[C@H]2C(=O)NCC(O)C(F)(F)F)c2ncccc12 (stereo partly drawn) [Example 40, (1R,3S,5R)-2-[2-(3-Acetyl-pyrazolo[3,4-b]pyridin-1-yl)-acetyl]-2-aza-bicyclo [3.1.0]hexane-3-carboxylic acid (3,3,3-trifluoro-2-hydroxy-propyl)-amide]	10.8 µM
NC(=O)c1nn(CC(=O)N2[C@@H]3C[C@@H]3C[C@H]2C(=O)NCC(F)F)c2ccccc12 [Example 32, 1-{2-[(1R,3S,5R)-3-(2,2-Difluoro-ethylcarbamoyl)-2-aza-bicyclo[3.1.0]hex-2-yl]-2-oxo-ethyl}-1H-indazole-3-carboxylic acid amide]	0.874 µM
